Structures are written as SMILES.

The target of one assay is T1, C1b domain of human PKCδ (Homo sapiens, UniProt Q05655).
T1 construct: Genes encoding C1b domains of human PKCα, δ, ε, θ, and PKD1 (PKCμ) were synthesized; made in house; host or cells: E. coli BL21(DE3)
The experiment in a line: biochemical. The assay is classed as binding. To be noted: 3H-PDBu competition. Here is the method: (§1) Compounds described in this disclosure were tested for binding affinity to C1b domain of PKC isoforms. Compound binding affinity to C1b domain of PKC isoforms was derived from competitive binding assay using radioactive tracer ^3H-PDBu and recombinant GST-C1b or full-length of human PKC proteins based on modified procedures from Methods in Molecular Biology, vol.
(§2) Genes encoding C1b domains of human PKCα, δ, ε, θ, and PKD1 (PKCμ) were synthesized and inserted into pGEX-2TK or pGEX-4T1 vectors for expression and production of GST-C1b proteins in E. coli BL21(DE3) via IPTG induction. The target proteins were purified by glutathione sepharose 4B and followed by ion exchange chromatography if needed to achieve purity >70%. Aliquots of the purified proteins were stored at −80 degree for binding assay (storage buffer: 20 mM Tris pH 8.0, 200 mM NaCl, 10% glycerol, 1 mM DTT).
(§3) The plate was incubated at 37° C. on a shaker at 300 rpm for 10 minutes and then put on ice for 20 minutes. […] The bottom of the filter plate was sealed and 50 μL of MicroScint-20 (PerkinElmer) cocktail was added to each well. ^3H-PDBu trapped in each well was counted using PerkinElmer MicroBeta2 Reader. Data were analyzed using GraphPad Prism5 with the model “log(inhibitor) vs. response-variable slope” to fit the IC50, and then IC50 was transformed to Ki using Cheng-Prusoff equation: Ki=IC50/(1+added radio ligand/Kd). Kd is the binding affinity of each protein preparation to ^3H-PDBu, determined experimentally.

In the next assay the target is T2, C1b domain of human PKCθ (Homo sapiens, UniProt Q04759).
T2 construct: Genes encoding C1b domains of human PKCα, δ, ε, θ, and PKD1 (PKCμ) were synthesized; made in house; host or cells: E. coli BL21(DE3)
T2 sequence (Q04759 231-281 limits assumed): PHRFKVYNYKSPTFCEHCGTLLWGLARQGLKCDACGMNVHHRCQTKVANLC
Nature of the assay: biochemical. The assay is classed as binding. To be noted: 3H-PDBu competition. How it is done:
as §1, §2, §3

In the next assay the test system is A549 cell line. Nature of the assay: Proliferation of A549 (CellTiter Glo). To be noted: Homo sapiens, A549, 96 h, read-out: IC50 μM (A549 Cell Line). Format: cell-based. Here is the method:
(§4) The diterpenoid compounds were tested in A549, a non-small cell lung cancer cell line harboring a K-Ras activating mutation. Briefly, A549 cells at a density of 1,000 cells/well were seeded in 96-well plates and incubated at 37° C. for 24 hours. A series of different concentrations of compound stocks (500×) were prepared by 3-fold serial dilution in DMSO. These compounds were further diluted in culture media and then added to cells so that the final DMSO concentration was not exceeding 0.25%. After 96 hours of incubation, 50 μL of CellTiter Glo reagent (Promega) was added to each well and luminescence was measured after 10 minutes using EnVision (PerkinElmer). Luminescence from cells treated with DMSO alone was set as Max and % of inhibition was calculated as follows: Inhibition %=(Max-Sample value)/Max×100. Data was analyzed using XL-fit software (ID Business Solutions Ltd.) and IC50, relative IC50, and % of top inhibition was calculated. Some of the compounds in this disclosure were very potent in blocking proliferation of A549 lung cancer cells at low nM range. In addition, potency of inhibiting A549 proliferation correlated well with its binding affinity to PKCs for this series of compounds. In other words, higher affinity binders had stronger inhibitory effects on A549 proliferation. This further support the notion that activation, rather than inhibition, of certain PKC isoforms is required to block proliferation of cancer cells, some of which may harbor K-Ras mutations. This is in sharp contrast to previous literature and common belief that inhibition of PKC is necessary to block cancer cell growth (Kang, 2014, New Journal of Science, 2014:1-36). Data presented here is in agreement with recent findings that many loss-of-function but not gain-of-function mutations of PKC isoforms have been identified in many human cancers (Antal et al., 2015, Cell, 160:489-502).

The target in another assay is T3, C1b domain of human PKCε (Homo sapiens, UniProt Q02156).
T3 construct: Genes encoding C1b domains of human PKCα, δ, ε, θ, and PKD1 (PKCμ) were synthesized; made in house; host or cells: E. coli BL21(DE3)
T3 sequence (Q02156 242-292 limits assumed): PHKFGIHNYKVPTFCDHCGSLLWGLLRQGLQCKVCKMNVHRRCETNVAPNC
Nature of the assay: biochemical. Format: binding. The conditions noted are these: 3H-PDBu competition. How it is done: as §1, §2, §3

Another assay relates to HL-60 (Leukemia). The experiment in a line: Proliferation of HL-60. Format: cell-based. Here is the method: as §4
(§5) The compounds in this disclosure were tested for their potency in blocking proliferation of a few other cancer cells lines, including K-Ras mutant pancreatic cell lines Panc2.13 and KP-4, leukemia cell line HL-60, and lymphoma cell lines Namalwa and Mino. Similar procedures as in Example 67 were followed. Initial cell numbers seeded in 96-well plates were different for different cell lines: 3000 cells/well for Panc2.13; 800-1000 cells/well for KP-4; 5000 cells/well for HL-60; 5000-10000 cells/well for Namalwa and Mino. A ratio of (IC50 of K101)/(IC50 of compound) (data in parenthesis in Table 5) was used to normalize the compound potency from different assay batches to a common comparator K101.

The next assay concerns Namalwa (Lymphoma). Nature of the assay: Proliferation of Namalwa. The assay is classed as cell-based. Here is the method:
as §4, §5

Another assay has as its system Mino (Lymphoma). Nature of the assay: Proliferation of Mino. The assay is classed as cell-based. How it is done:
as §4, §5

For assay [1], the system named is NFκB-driven transcription in HeLa-NFκB luciferase reporter cell line. Nature of the assay: NFκB luciferase reporter assay. The conditions noted are these: Homo sapiens, HeLa, 16 h, read-out: NFκB-luc HeLa cells EC50 (μM).
Assay [2] has as its target T4, C1b domain of human PKD1 (PKCμ) (Homo sapiens, UniProt Q15139).
T4 construct: Genes encoding C1b domains of human PKCα, δ, ε, θ, and PKD1 (PKCμ) were synthesized; made in house; host or cells: E. coli BL21(DE3)
T4 sequence (Q15139 270-320 limits assumed): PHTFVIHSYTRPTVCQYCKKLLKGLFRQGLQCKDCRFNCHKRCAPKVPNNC
Nature of the assay: Competitive 3H-PDBu binding assay, C1b domain of PKD1 (PKCμ). The conditions noted are these: 3H-PDBu competition. How it is done: as §1, §2, §3

T1 sequence (Q05655 230-280 limits assumed): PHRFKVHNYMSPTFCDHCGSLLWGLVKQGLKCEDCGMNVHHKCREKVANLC

Turning to `CC1=C[C@H]2[C@@]3(O)[C@H](C)C[C@]4(OC(=O)C5CC6(C5)CN(C(=O)OC(C)(C)C)C6)[C@H]([C@@H]3C=C(CO)C[C@]2(O)C1=O)C4(C)C`, the Ki at C1b domain of human PKCδ and on C1b domain of human PKCθ was 10 to 30 nM in each case. Besides, in the assay with A549 cell line, the IC50 lay in the range of 0.1 to 0.2 µM.

Regarding `CC1=C[C@H]2[C@@]3(O)[C@H](C)C[C@]4(OC(=O)[C@@H](N)CCCCCCc5ccc(C(F)F)cc5)[C@H]([C@@H]3C=C(CO)C[C@]2(O)C1=O)C4(C)C`, the Ki at C1b domain of human PKCδ and on C1b domain of human PKCθ was 10 to 30 nM each time. The IC50 in the assay with A549 cell line is 0.1 to 0.2 µM.

As to `CC1=C[C@H]2[C@@]3(O)[C@H](C)C[C@]4(OC(=O)[C@H](N)C(C)(C)c5ccc(C(F)(F)F)cc5)[C@H]([C@@H]3C=C(CO)C[C@]2(O)C1=O)C4(C)C`, the Ki on C1b domain of human PKCδ, at C1b domain of human PKCε and at C1b domain of human PKCθ was 10 to 30 nM throughout. Also, the IC50 was 0.2 to 0.6 µM with A549 cell line; 100 to 200 nM in the assay on HL-60 (Leukemia) (Homo sapiens, HL-60, read-out: IC50 HL-60 (Leukemia)); 100 to 200 nM in the assay with Namalwa (Lymphoma) (read-out: IC50 Namalwa (Lymphoma)); 10 to 30 nM with Mino (Lymphoma) (Homo sapiens, MINO, read-out: IC50 Mino (Lymphoma)). Also, the “ratio (IC50 of K101)/(IC50 of compound) HL-60” value in the assay on HL-60 (Leukemia) stood at 2.75. In addition, in the assay with Namalwa (Lymphoma), the “ratio (IC50 of K101)/(IC50 of compound) Namalwa” value came to 0.49. Further, in the assay with Mino (Lymphoma), the “ratio (IC50 of K101)/(IC50 of compound) Mino” value is recorded as 3.88. The EC50 in assay [1] was in the range of 0.1 to 0.2 µM.

For `CC1=C[C@H]2[C@@]3(O)[C@H](C)C[C@]4(OC(=O)CC5CC6(C5)CN(C(=O)OC(C)(C)C)C6)[C@H]([C@@H]3C=C(CO)C[C@]2(O)C1=O)C4(C)C`, the Ki on C1b domain of human PKCε and at C1b domain of human PKCθ was 10 to 30 nM in each case. Moreover, in the assay on A549 cell line, the IC50 lay in the range of 0.03 to 0.06 µM.

For the compound `CC1=C[C@H]2[C@@]3(O)[C@H](C)C[C@]4(OC(=O)/C=C/c5ccc(C(F)(F)F)cc5)[C@H]([C@@H]3C=C(CO)C[C@]2(O)C1=O)C4(C)C`, the Ki on C1b domain of human PKCδ, at C1b domain of human PKCε and on C1b domain of human PKCθ was 10 to 30 nM in each case. For the same compound, the IC50 in the assay on A549 cell line fell in the range of 0.06 to 0.1 µM.

Turning to `CC1=C[C@H]2[C@@]3(O)[C@H](C)C[C@]4(OC(=O)[C@H](N)CCCCCCc5ccc(C(F)(F)F)cc5)[C@H]([C@@H]3C=C(CO)C[C@]2(O)C1=O)C4(C)C`, the Ki at C1b domain of human PKCε was in the range of 60 to 100 nM; in assay [2], 10 to 30 nM. Further, the IC50 with A549 cell line lay within 0.06 to 0.1 µM.

(Values after patent US20240197666A1, “DITERPENOID COMPOUNDS THAT ACT ON PROTEIN KINASE C (PKC)” (K-Gen Therapeutics, Inc., priority 2021, published 2024).)
